Assay results reported in PMC6494957 (Frontiers in Microbiology, 2019).
Read-outs that look alike come from different tables or passages of the source.

Assays:
P. aeruginosa PA01 = test: MIC broth microdilution and checkerboard; assay type: cell-based, Pseudomonas aeruginosa; conditions: for DRI EDTA:ROB: DRI of the labelled component; for MIC: Pseudomonas aeruginosa; for MIC in combination EDTA:ROB: concentration of the labelled component
Description: (§1) The MIC for ampicillin or gentamicin against each isolate was determined for each test to serve as an internal quality control. The MICs of isolates were determined by visual reading and using an EnSpire Multimode Plate Reader 2300 atA600nm.
(§2) Briefly, antimicrobial stock solutions for robenidine and PMBN were prepared at a concentration of 12.8 mg/ml in DMSO. […] A 1 μl aliquot of the first compound from each combination was dispensed along the abscissa (from row A to G) of the 96-well microplate, while the second compound was dispensed along the ordinate (from column 12 to column 3) using an electronic multichannel pipette followed by 89 μl of LB broth. Each well of the plate was inoculated with an aliquot of 10 μl bacterial suspension at a concentration of 1-5 × 10^6 colony forming units (CFU) per ml. Subsequently, the plate was incubated at 37°C for 24 h. The fractional inhibitory concentration index (FICI) described the results of the combinations, and was calculated utilizing the following formula:
(§3) DRI = MIC of drug alone/MIC of drug in combination

[1] = tested on: P. mirabilis (n = 21) clinical isolates from otitis externa cases in dogs; test: MIC/MBC and checkerboard, canine otitis externa isolates; assay type: cell-based, Proteus mirabilis; conditions: for MIC50 / MIC90: Proteus mirabilis; for MIC50, in combination of EDTA and ROB / MIC90, in combination of EDTA and ROB / MIC range, in combination of EDTA and ROB: concentration of the labelled component
Description: (§4) Escherichia coli ATCC 25922, E. coli ATCC 11229, P. aeruginosa ATCC 27853, P. aeruginosa PA01, Pseudomonas putida ATCC 17428, P. mirabilis ATCC 43071, K. pneumoniae ATCC 13883, A. baumannii ATCC 19606, and A. baumannii ATCC 12457 were used for preliminary susceptibility testing and combination experiments. S. aureus ATCC 29213 and S. pneumoniae ATCC 49619 were used as internal quality controls. A variety of bacterial organisms from both human and canine infections were investigated in this study (n = 119 isolates in total). Twenty-eight clinical Acinetobacter spp. isolates were obtained from cases of human skin and soft tissue infections, including 18 Acinetobacter baumannii and 10 A. calcoaceticus, kindly provided by a person (Institute of Medical and Veterinary Science, South Australia). […] Ninety-one clinical isolates were obtained from cases of canine otitis externa, including seven methicillin-susceptible S. pseudintermedius (MSSP), 13 multidrug- and methicillin-resistant S. pseudintermedius (MRSP) ([Saputra et al., 2017]), 20 beta-haemolytic Streptococcus spp., 30 P. aeruginosa (10 of them resistant to gentamicin and 21 P. mirabilis isolates). These isolates were obtained from the bacterial collection of the national survey of antimicrobial resistance in animals conducted in Australia. Swab samples from dogs with signs of otitis externa were collected by veterinarians and submitted to government, private or university diagnostic laboratories throughout Australia. After routine bacterial identification and the removal of confidential information, the participating veterinary diagnostic laboratories submitted the bacteria and their clinical information to PC2 Laboratories, Australian Centre for Antimicrobial Resistance Ecology, School of Animal and Veterinary Sciences, University of Adelaide, Roseworthy Campus, Roseworthy, SA, Australia, for further study. Thus, animal ethics approval was not required in this study. These organisms were identified to species level using biochemical testing and MALDI-TOF mass spectrometry (Bruker, Preston, VIC, Australia).
as §1
(§5) Briefly, 10 μl aliquots from each duplicate well from the MIC assays (starting from the MIC for each compound) were inoculated onto a sheep blood agar (SBA) plate and incubated at 37°C.
as §2, §3

HaCaT cell line = test: In vitro cytotoxicity, WST-1; assay type: cell-based; conditions: Homo sapiens, 10% FBS, read-out: IC50, single agent
Description: Cells were maintained in Dulbecco’s modified Eagle’s medium (DMEM) with 10% fetal bovine serum (FBS) and 1% PenStrep (100 U/mL Penicillin and 100 μg/mL Streptomycin) at 37°C with 5% CO2. Cells were serially passaged at ∼80% confluence ∼ every 4 days. Assays were performed in duplicate in 96 well plates seeded with ∼25,000 cells per well. […] Briefly, the antimicrobials were prepared by performing a twofold serial dilution at 100× of tested concentration in DMSO. Subsequently, a 1 μl aliquot of each concentration was transferred to a sterile 96-well plate containing fresh DMEM with either 10% FBS. After mixing four times, the media aliquots with different concentrations of antimicrobial were transferred to each well of the 96-well plate seeded with cells, using wells containing 1–2% DMSO only as control. To determine the effect of FBS on the cytotoxicity of each compound, DMEM with 40% FBS containing different concentrations of antimicrobial was prepared as described above. After 24 h of exposure, WST-1 reagent (Cell Proliferation Assay reagent, Roche) at a concentration of 10% was added to each well. Absorbance at A450 nm on a Multiskan Ascent 354 Spectrophotometer (Labsystems) was measured after 1 h of incubation. The IC50 value was determined for each compound against each cell line via non-linear regression (three parameters) using GraphPad Prism v6 software.

[2] = tested on: S. pseudintermedius (n = 20) clinical isolates from otitis externa cases in dogs; test: MIC/MBC and checkerboard, canine otitis externa isolates; assay type: cell-based, Staphylococcus pseudintermedius; conditions: for MIC50 / MIC90: Staphylococcus pseudintermedius; for MIC50, in combination of EDTA and ROB / MIC90, in combination of EDTA and ROB / MIC range, in combination of EDTA and ROB: concentration of the labelled component
Description: as §4, §1, §5, §2, §3

[3] = tested on: P. aeruginosa (n = 30) clinical isolates from otitis externa cases in dogs; test: as above; assay type: cell-based, Pseudomonas aeruginosa; conditions: for MIC50 / MIC90: Pseudomonas aeruginosa; for MIC50, in combination of EDTA and ROB / MIC90, in combination of EDTA and ROB / MIC range, in combination of EDTA and ROB: concentration of the labelled component
Description: as §4, §1, §5, §2, §3

[4] = canine otitis externa, read-out: MIC50, single drug
[5] = canine otitis externa, read-out: MIC90, single drug
[6] = read-out: MIC50, single drug (mM in parentheses)
[7] = read-out: MIC90, single drug (mM in parentheses)

## O=C(O)CN(CCN(CC(=O)O)CC(=O)O)CC(=O)O [EDTA, ethylenediaminetetraacetic acid]
P. aeruginosa PA01
  DRI EDTA:ROB: 2
  MIC in combination EDTA:ROB: 950 µg/mL
P. aeruginosa PA01; EDTA component
  MIC in combination EDTA:ROB (mM in parentheses): 2.5 mM
P. aeruginosa PA01; read-out: MIC, single drug
  MIC: 1900 µg/mL
P. aeruginosa PA01; read-out: MIC, single drug (mM in parentheses)
  MIC: 5 mM
[1]
  MBC/MIC row, EDTA in combination: 750 µg/mL
  MBC/MIC row, EDTA in combination (mM in parentheses): 2 mM
  MIC range, single drug (mM in parentheses): 0.5 to 2 mM
  MIC50, in combination of EDTA and ROB: 380 µg/mL
  MIC90, in combination of EDTA and ROB: 380 µg/mL
  MIC range, in combination of EDTA and ROB: 190 to 380 µg/mL
[1]; EDTA component
  MIC50, in combination of EDTA and ROB (mM in parentheses): 1 mM
  MIC90, in combination of EDTA and ROB (mM in parentheses): 1 mM
  MIC range, in combination of EDTA and ROB (mM in parentheses): 0.5 to 1 mM
[1]; [4]
  MIC50: 380 µg/mL
[1]; [5]
  MIC90: 750 µg/mL
[1]; [6]
  MIC50: 1 mM
[1]; [7]
  MIC90: 2 mM
[1]; canine otitis externa
  MIC range, single drug: 190 to 750 µg/mL
HaCaT cell line
  IC50: 3.8 mM
[2]
  MBC/MIC row, EDTA in combination: 750 µg/mL
  MBC/MIC row, EDTA in combination (mM in parentheses): 2 mM
  MIC range, single drug (mM in parentheses): 0.25 to 1 mM
  MIC50, in combination of EDTA and ROB: 95 µg/mL
  MIC90, in combination of EDTA and ROB: 95 µg/mL
  MIC range, in combination of EDTA and ROB: 95 µg/mL
[2]; EDTA component
  MIC50, in combination of EDTA and ROB (mM in parentheses): 0.25 mM
  MIC90, in combination of EDTA and ROB (mM in parentheses): 0.25 mM
  MIC range, in combination of EDTA and ROB (mM in parentheses): 0.25 mM
[2]; [4]
  MIC50: 190 µg/mL
[2]; [5]
  MIC90: 190 µg/mL
[2]; [6]
  MIC50: 0.5 mM
[2]; [7]
  MIC90: 0.5 mM
[2]; canine otitis externa
  MIC range, single drug: 95 to 380 µg/mL
[3]
  MBC/MIC row, EDTA in combination: 750 µg/mL
  MBC/MIC row, EDTA in combination (mM in parentheses): 2 mM
  MIC range, single drug (mM in parentheses): 2 to 12 mM
  MIC50, in combination of EDTA and ROB: 1500 µg/mL
  MIC90, in combination of EDTA and ROB: 1500 µg/mL
  MIC range, in combination of EDTA and ROB: 380 to 1500 µg/mL
[3]; EDTA component
  MIC50, in combination of EDTA and ROB (mM in parentheses): 4 mM
  MIC90, in combination of EDTA and ROB (mM in parentheses): 4 mM
  MIC range, in combination of EDTA and ROB (mM in parentheses): 1 to 4 mM
[3]; [4]
  MIC50: 3000 µg/mL
[3]; [5]
  MIC90: 3000 µg/mL
[3]; [6]
  MIC50: 8 mM
[3]; [7]
  MIC90: 8 mM
[3]; canine otitis externa
  MIC range, single drug: 750 to 4500 µg/mL

## N=C(N/N=C/c1ccc(Cl)cc1)N/N=C/c1ccc(Cl)cc1 [ROB, robenidine]
P. aeruginosa PA01
  DRI EDTA:ROB: 256
  MIC in combination EDTA:ROB: 1.25 µg/mL
P. aeruginosa PA01; read-out: MIC, single drug
  MIC: > 256 µg/mL
[1]
  MBC/MIC, ROB in combination with EDTA: ≥2
  MIC50, in combination of EDTA and ROB: 0.125 µg/mL
  MIC90, in combination of EDTA and ROB: 0.5 µg/mL
  MIC range, in combination of EDTA and ROB: 0.125 to 4 µg/mL
[1]; [4]
  MIC50: > 256 µg/mL
[1]; [5]
  MIC90: > 256 µg/mL
[1]; canine otitis externa
  MIC range, single drug: >256 µg/mL
HaCaT cell line
  IC50: 14 µg/mL
[2]
  MBC/MIC, ROB in combination with EDTA: 2
  MIC50, in combination of EDTA and ROB: 1 µg/mL
  MIC90, in combination of EDTA and ROB: 1 µg/mL
  MIC range, in combination of EDTA and ROB: 0.25 to 2 µg/mL
[2]; [4]
  MIC50: 2 µg/mL
[2]; [5]
  MIC90: 2 µg/mL
[2]; canine otitis externa
  MIC range, single drug: 1 to 4 µg/mL
[2]; footnote for BS not shown
  MBC/MIC, single drug: 1.5
[3]
  MBC/MIC, ROB in combination with EDTA: ≥2
  MIC50, in combination of EDTA and ROB: 0.25 µg/mL
  MIC90, in combination of EDTA and ROB: 2 µg/mL
  MIC range, in combination of EDTA and ROB: 0.125 to 4 µg/mL
[3]; [4]
  MIC50: > 256 µg/mL
[3]; [5]
  MIC90: > 256 µg/mL
[3]; canine otitis externa
  MIC range, single drug: >256 µg/mL
